Reference: EP3322687B1, “2-BENZYL-INDANONE COMPOUNDS AS ANTICANCER AGENT AND A PROCESS FOR PREPARATION THEREOF” (Council of Scientific and Industrial Research, priority 2015, dated 2017)

Assays:
[1] = tested on: various human cancer cell lines; assay: Cytotoxicity against various human cancer cell lines (summary statement); format: cell-based; details: read-out: cytotoxicity against various human cancer cell lines, IC50
Description: The benzyl compounds were evaluated by Sulforhodamine B Assay as per reported method [Skehan etal., J. Natl. Cancer Inst.1990, 82, 1107]. The human cancer cell lines procured from National Cancer Institute, Frederick, U. S. A. were used in present study. Cells were grown in tissue culture flasks in complete growth medium (RPMI-1640 medium with 2 mM glutamine, pH 7.4 supplemented with 10% fetal bovine serum, 100 µg/ml streptomycin and 100 units/ml penicillin) in a carbon dioxide incubator (37°C, 5% CO2, 90% RH). The cells at subconfluent stage were harvested from the flask by treatment with trypsin (0.05% in PBS (pH 7.4) containing 0.02% EDTA). Cells with viability of more than 98%, as determined by trypan blue exclusion, were used for determination of cytotoxicity. The cell suspension required concentration of cells was prepared in complete growth medium. Stock solution of 2x10^-2 M of compounds were prepared in DMSO and further dilution was carried out complete growth medium containing 50µg/ml of gentamycin to obtained working test solution of required concentration. In vitro cytotoxicity against various human cancer cell lines was determined using 96-well cell culture plates. […] Cell growth was measured by staining with sulforhodamine B dye. […] The optical density (OD) was recorded on ELISA reader at 540nm. […]

[2] = tested on: tubulin protein; format: biochemical; details: tubulin 3mg/mL, 37° C, 340 nm, 1h; read-out: Tubulin polymerisation inhibition IC50
Description: The tubulin polymerization experiment was performed using 'assay kit'(Cytoskeleton USA) following manufacturer's protocol based on the procedure described by of Shelanski et al, (1973) and Lee et al. (1977). Briefly, tubulin protein (3mg/mL) in tubulin polymerization buffer (80 mM PIPES, pH 6.9, 2 mM MgCl2, 0.5 mM EGTA, 1 mM GTP and 15% glycerol) was placed in prewarmed 96-well microtiter plates at 37° C in the presence of test compounds with variable concentrations. All samples were mixed well and polymerization was monitored kinetically at 340 nm every min for 1h using a Spectramax plate reader. The IC50 value was determined from dose-dependent analysis and is defined as the concentration that inhibits the rate of polymerization by 50%. Podophyllotoxin was used as standard tubulin polymerisation inhibitor as positive control.

Work on `COc1cc(C2c3c(cc(OC)c(OC)c3OC)C(=O)C2Cc2ccc3c(c2)OCO3)cc(OC)c1OC` (centres unmarked) [Compound 2, 2-(3",4"-methylenedioxybenzyl)-3-(3',4',5'-trimethoxyphenyl)-4,5,6-trimethoxy-indan-1-one] yielded an IC50 [1] of 1 to 3 µM and an IC50 [2] of 2.08 µM.
